The supplement of paper PMC10307832

Columns and labels:
Assay in all cases: relative viability (nuclei count vs DMSO), 5 days (fraction); higher = more cells survive
NCI-H2228 = test system: NCI-H2228
In short: (§1)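 Five library-drug doses in √10 steps were combined with a fixed anchor-drug dose, or a single drug was given alone, by pin tool to lung cancer cell lines in 1536-well plates the day after seeding. Nuclei were stained and counted after 5 days. Relative viability is the nuclei count in treated wells over that in vehicle wells, taken as the median of duplicate plates.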

SW 1573 = test system: SW 1573
In short: as §1

NCI-H1755 = test system: NCI-H1755
In short: as §1

NCI-H1792 = test system: NCI-H1792
In short: as §1

NCI-H650 = test system: NCI-H650
In short: as §1

NCI-H1915 = test system: NCI-H1915
In short: as §1

SK-LU-1 = test system: SK-LU-1
In short: as §1

HCC-366 = test system: HCC-366
In short: as §1

LCLC-103H = test system: LCLC-103H
In short: as §1

NCI-H1355 = test system: NCI-H1355
In short: as §1

NCI-H2347 = test system: NCI-H2347
In short: as §1

RERF-LC-KJ = test system: RERF-LC-KJ
In short: as §1

NCI-H23 = test system: NCI-H23
In short: as §1

NCI-H1993 = test system: NCI-H1993
In short: as §1

A-427 = test system: A-427
In short: as §1

UMC-11 = test system: UMC-11
In short: as §1

NCI-H1975 = test system: NCI-H1975
In short: as §1

NCI-H1734 = test system: NCI-H1734
In short: as §1

HCC-827 = test system: HCC-827
In short: as §1

LC-2-ad = test system: LC-2-ad
In short: as §1

CCNC(=O)c1noc(-c2cc(C(C)C)c(O)cc2O)c1-c1ccc(CN2CCOCC2)cc1 [Luminespib] + CC(C)C[C@H](NC(=O)[C@H](Cc1ccccc1)NC(=O)c1cnccn1)B(O)O [Bortezomib] (partner 0.002 µM)
relative viability (NCI-H2228; first compound 0.002 µM): 0.985 | relative viability (NCI-H2228; first compound 0.006325 µM): 0.952 | relative viability (NCI-H2228; first compound 0.02 µM): 0.166 | relative viability (NCI-H2228; first compound 0.06325 µM): 0.196 | relative viability (NCI-H2228; first compound 0.2 µM): 0.184 | relative viability (SW 1573; first compound 0.002 µM): 1.07 | relative viability (SW 1573; first compound 0.006325 µM): 0.941 | relative viability (SW 1573; first compound 0.02 µM): 0.96 | relative viability (SW 1573; first compound 0.06325 µM): 0.117 | relative viability (SW 1573; first compound 0.2 µM): 0.114 | relative viability (NCI-H1755; first compound 0.002 µM): 0.992 | relative viability (NCI-H1755; first compound 0.006325 µM): 0.909 | relative viability (NCI-H1755; first compound 0.02 µM): 0.954 | relative viability (NCI-H1755; first compound 0.06325 µM): 0.528 | relative viability (NCI-H1755; first compound 0.2 µM): 0.169 | relative viability (NCI-H1792; first compound 0.002 µM): 0.93 | relative viability (NCI-H1792; first compound 0.006325 µM): 0.888 | relative viability (NCI-H1792; first compound 0.02 µM): 0.633 | relative viability (NCI-H1792; first compound 0.06325 µM): 0.478 | relative viability (NCI-H1792; first compound 0.2 µM): 0.36 | relative viability (NCI-H650; first compound 0.002 µM): 0.737 | relative viability (NCI-H650; first compound 0.006325 µM): 0.716 | relative viability (NCI-H650; first compound 0.02 µM): 0.651 | relative viability (NCI-H650; first compound 0.06325 µM): 0.124 | relative viability (NCI-H650; first compound 0.2 µM): 0.103 | relative viability (NCI-H1915; first compound 0.002 µM): 0.976 | relative viability (NCI-H1915; first compound 0.006325 µM): 0.995 | relative viability (NCI-H1915; first compound 0.02 µM): 1.02 | relative viability (NCI-H1915; first compound 0.06325 µM): 0.942 | relative viability (NCI-H1915; first compound 0.2 µM): 0.442 | relative viability (SK-LU-1; first compound 0.002 µM): 1.19 | relative viability (SK-LU-1; first compound 0.006325 µM): 1.02 | relative viability (SK-LU-1; first compound 0.02 µM): 0.716 | relative viability (SK-LU-1; first compound 0.06325 µM): 0.199 | relative viability (SK-LU-1; first compound 0.2 µM): 0.203 | relative viability (HCC-366; first compound 0.002 µM): 1.01 | relative viability (HCC-366; first compound 0.006325 µM): 1.01 | relative viability (HCC-366; first compound 0.02 µM): 0.474 | relative viability (HCC-366; first compound 0.06325 µM): 0.025 | relative viability (HCC-366; first compound 0.2 µM): 0.0174 | relative viability (LCLC-103H; first compound 0.002 µM): 1.07 | relative viability (LCLC-103H; first compound 0.006325 µM): 1.01 | relative viability (LCLC-103H; first compound 0.02 µM): 0.931 | relative viability (LCLC-103H; first compound 0.06325 µM): 1 | relative viability (LCLC-103H; first compound 0.2 µM): 0.676 | relative viability (NCI-H1355; first compound 0.002 µM): 1.14 | relative viability (NCI-H1355; first compound 0.006325 µM): 1.12 | relative viability (NCI-H1355; first compound 0.02 µM): 0.571 | relative viability (NCI-H1355; first compound 0.06325 µM): 1 | relative viability (NCI-H1355; first compound 0.2 µM): 0.182 | relative viability (NCI-H2347; first compound 0.002 µM): 0.947 | relative viability (NCI-H2347; first compound 0.006325 µM): 0.601 | relative viability (NCI-H2347; first compound 0.02 µM): 0.737 | relative viability (NCI-H2347; first compound 0.06325 µM): 0.587 | relative viability (NCI-H2347; first compound 0.2 µM): 0.36 | relative viability (RERF-LC-KJ; first compound 0.002 µM): 1.06 | relative viability (RERF-LC-KJ; first compound 0.006325 µM): 1.13 | relative viability (RERF-LC-KJ; first compound 0.02 µM): 1.06 | relative viability (RERF-LC-KJ; first compound 0.06325 µM): 0.69 | relative viability (RERF-LC-KJ; first compound 0.2 µM): 0.268 | relative viability (NCI-H23; first compound 0.002 µM): 1.23 | relative viability (NCI-H23; first compound 0.006325 µM): 1.05 | relative viability (NCI-H23; first compound 0.02 µM): 0.733 | relative viability (NCI-H23; first compound 0.06325 µM): 0.119 | relative viability (NCI-H23; first compound 0.2 µM): 0.117 | relative viability (NCI-H1993; first compound 0.002 µM): 0.998 | relative viability (NCI-H1993; first compound 0.006325 µM): 1.12 | relative viability (NCI-H1993; first compound 0.02 µM): 0.68 | relative viability (NCI-H1993; first compound 0.06325 µM): 0.816 | relative viability (NCI-H1993; first compound 0.2 µM): 0.374 | relative viability (A-427; first compound 0.002 µM): 1.04 | relative viability (A-427; first compound 0.006325 µM): 0.926 | relative viability (A-427; first compound 0.02 µM): 0.811 | relative viability (A-427; first compound 0.06325 µM): 0.94 | relative viability (A-427; first compound 0.2 µM): 0.584 | relative viability (UMC-11; first compound 0.002 µM): 0.838 | relative viability (UMC-11; first compound 0.006325 µM): 0.616 | relative viability (UMC-11; first compound 0.02 µM): 0.365 | relative viability (UMC-11; first compound 0.06325 µM): 0.226 | relative viability (UMC-11; first compound 0.2 µM): 0.087 | relative viability (NCI-H1975; first compound 0.002 µM): 0.444 | relative viability (NCI-H1975; first compound 0.006325 µM): 0.389 | relative viability (NCI-H1975; first compound 0.02 µM): 0.219 | relative viability (NCI-H1975; first compound 0.06325 µM): 0.149 | relative viability (NCI-H1975; first compound 0.2 µM): 0.119 | relative viability (NCI-H1734; first compound 0.002 µM): 1.06 | relative viability (NCI-H1734; first compound 0.006325 µM): 0.823 | relative viability (NCI-H1734; first compound 0.02 µM): 0.698 | relative viability (NCI-H1734; first compound 0.06325 µM): 0.118 | relative viability (NCI-H1734; first compound 0.2 µM): 0.117 | relative viability (HCC-827; first compound 0.002 µM): 1.04 | relative viability (HCC-827; first compound 0.006325 µM): 0.999 | relative viability (HCC-827; first compound 0.02 µM): 1.11 | relative viability (HCC-827; first compound 0.06325 µM): 1.22 | relative viability (HCC-827; first compound 0.2 µM): 0.66 | relative viability (LC-2-ad; first compound 0.002 µM): 0.733 | relative viability (LC-2-ad; first compound 0.006325 µM): 1.02 | relative viability (LC-2-ad; first compound 0.02 µM): 1.1 | relative viability (LC-2-ad; first compound 0.06325 µM): 0.133 | relative viability (LC-2-ad; first compound 0.2 µM): 0.0947
